Key:
Test in all cases: Kinase panel, CaNDY 1 µM
Format in all cases: biochemical
Settings in all cases: CaNDY 1 µM relative to DMSO
ABL = biological target: T1, ABL (Homo sapiens, UniProt P00519)
T1 construct: purchased Carna Biosciences
Description: (§1) Detailed information on the assay conditions is available on the website of Carna Biosciences (http://www.carnabio.com/english/index.html; Kobe, Japan). In brief, full-length human recombinant kinases were expressed using a baculovirus expression system as amino-terminal GST-fusion proteins, and purified by glutathione-Sepharose chromatography. The GenBank accession numbers of DYRK1A, DYRK1B, DYRK2, and DYRK3 were NP_001387.2, NP_004705.1, NP_003574.1, and NP_003573.2. Kinase activities were evaluated by Off-chip Mobility Shift Assay after reaction of 1 μM of the substrate DYRKtide-F with ATP (25 μM for DYRK1A, 50 μM for DYRK1B, 10 μM for DYRK2, and 5 μM for DYRK3). For each compound, a DMSO solution was diluted in assay buffer to yield a final concentration of 1% DMSO. After incubation for one hour at room temperature, substrate phosphorylation was analyzed by electrophoretic separation of the substrate and products using a Caliper LC3000 platform (Caliper Life Sciences, Mountain View, CA, USA). The phosphorylated product (P)/(P + substrate) ratio was calculated at each concentration of each small molecule and the percent inhibition was expressed relative to a control assay in the absence of the small molecule. […] The IC50 of each compound was calculated by interpolation on a log-concentration-response curve fitted with a four-parameter logistic equation.
(§2) All kinase assays were carried out at Carna Biosciences. The inhibitory map was made with Kinome Render[36].

ABL(T315I) = biological target: T2, ABL(T315I) (Homo sapiens, UniProt P00519, T315I)
T2 construct: purchased Carna Biosciences
Description: as §1, §2

AKT1 = biological target: T3, AKT1 (Homo sapiens, UniProt P31749)
T3 construct: purchased Carna Biosciences
Description: as §1, §2

AKT2 = biological target: T4, AKT2 (Homo sapiens, UniProt P31751)
T4 construct: purchased Carna Biosciences
Description: as §1, §2

ALK(F1174L) = biological target: T5, ALK(F1174L) (Homo sapiens, UniProt Q9UM73, F1174L)
T5 construct: purchased Carna Biosciences
Description: as §1, §2

ALK(R1275Q) = biological target: T6, ALK(R1275Q) (Homo sapiens, UniProt Q9UM73, R1275Q)
T6 construct: purchased Carna Biosciences
Description: as §1, §2

AXL = biological target: T7, AXL (Homo sapiens, UniProt P30530)
T7 construct: purchased Carna Biosciences
Description: as §1, §2

BRAF(V600E)_Cascade = biological target: T8, BRAF(V600E)_Cascade (Homo sapiens, UniProt P15056, V600E)
T8 construct: purchased Carna Biosciences
Description: as §1, §2

CHK1 = biological target: T9, CHK1 (Homo sapiens, UniProt O14757)
T9 construct: purchased Carna Biosciences
T9 sequence (O14757 whole entry): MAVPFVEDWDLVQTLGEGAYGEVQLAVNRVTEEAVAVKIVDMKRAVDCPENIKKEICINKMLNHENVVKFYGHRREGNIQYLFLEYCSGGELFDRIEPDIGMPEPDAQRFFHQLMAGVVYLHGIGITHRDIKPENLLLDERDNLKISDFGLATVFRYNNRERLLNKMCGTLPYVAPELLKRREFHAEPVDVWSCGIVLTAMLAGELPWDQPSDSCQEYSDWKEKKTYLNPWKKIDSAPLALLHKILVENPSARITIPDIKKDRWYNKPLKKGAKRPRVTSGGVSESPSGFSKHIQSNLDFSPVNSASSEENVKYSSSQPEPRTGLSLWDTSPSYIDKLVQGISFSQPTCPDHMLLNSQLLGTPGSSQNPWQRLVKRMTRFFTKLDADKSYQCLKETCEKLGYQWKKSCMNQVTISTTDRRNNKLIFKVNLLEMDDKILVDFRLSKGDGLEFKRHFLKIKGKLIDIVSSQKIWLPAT
Description: as §1, §2

CHK2 = biological target: T10, CHK2 (Homo sapiens, UniProt O96017)
T10 construct: purchased Carna Biosciences
Description: as §1, §2

CK1γ1 = biological target: T11, CK1γ1 (Homo sapiens, UniProt Q9HCP0)
T11 construct: purchased Carna Biosciences
Description: as §1, §2

CSK = biological target: T12, CSK (Homo sapiens, UniProt P41240)
T12 construct: purchased Carna Biosciences
Description: as §1, §2

CaMK2δ = biological target: T13, CaMK2δ (Homo sapiens, UniProt Q13557)
T13 construct: purchased Carna Biosciences
T13 sequence (Q13557 whole entry): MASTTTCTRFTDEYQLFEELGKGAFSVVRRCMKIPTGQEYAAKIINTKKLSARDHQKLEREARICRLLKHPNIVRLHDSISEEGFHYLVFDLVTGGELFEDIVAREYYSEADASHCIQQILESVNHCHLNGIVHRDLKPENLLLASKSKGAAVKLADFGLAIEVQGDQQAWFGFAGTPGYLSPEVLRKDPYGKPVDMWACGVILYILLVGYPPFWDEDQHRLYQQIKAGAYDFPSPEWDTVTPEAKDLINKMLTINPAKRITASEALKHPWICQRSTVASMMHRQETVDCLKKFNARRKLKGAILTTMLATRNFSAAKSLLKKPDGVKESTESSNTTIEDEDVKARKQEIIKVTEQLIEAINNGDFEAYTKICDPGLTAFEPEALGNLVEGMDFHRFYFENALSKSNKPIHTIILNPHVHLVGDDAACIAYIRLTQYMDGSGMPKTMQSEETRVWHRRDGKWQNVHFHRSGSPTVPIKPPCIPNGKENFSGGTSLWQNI
Description: as §1, §2

EGFR(L858R) = biological target: T14, EGFR(L858R) (Homo sapiens, UniProt P00533, L858R)
T14 construct: purchased Carna Biosciences
Description: as §1, §2

EPHA7 = biological target: T15, EPHA7 (Homo sapiens, UniProt Q15375)
T15 construct: purchased Carna Biosciences
Description: as §1, §2

FLT4 = biological target: T16, FLT4 (Homo sapiens, UniProt P35916)
T16 construct: purchased Carna Biosciences
Description: as §1, §2

IKKα = biological target: T17, IKKα (Homo sapiens, UniProt O15111)
T17 construct: purchased Carna Biosciences
Description: as §1, §2

MAP2K4_Cascade = biological target: T18, MAP2K4_Cascade (Homo sapiens, UniProt P45985)
T18 construct: purchased Carna Biosciences
Description: as §1, §2

MAP4K2 = biological target: T19, MAP4K2 (Homo sapiens, UniProt Q12851)
T19 construct: purchased Carna Biosciences
T19 sequence (Q12851 whole entry): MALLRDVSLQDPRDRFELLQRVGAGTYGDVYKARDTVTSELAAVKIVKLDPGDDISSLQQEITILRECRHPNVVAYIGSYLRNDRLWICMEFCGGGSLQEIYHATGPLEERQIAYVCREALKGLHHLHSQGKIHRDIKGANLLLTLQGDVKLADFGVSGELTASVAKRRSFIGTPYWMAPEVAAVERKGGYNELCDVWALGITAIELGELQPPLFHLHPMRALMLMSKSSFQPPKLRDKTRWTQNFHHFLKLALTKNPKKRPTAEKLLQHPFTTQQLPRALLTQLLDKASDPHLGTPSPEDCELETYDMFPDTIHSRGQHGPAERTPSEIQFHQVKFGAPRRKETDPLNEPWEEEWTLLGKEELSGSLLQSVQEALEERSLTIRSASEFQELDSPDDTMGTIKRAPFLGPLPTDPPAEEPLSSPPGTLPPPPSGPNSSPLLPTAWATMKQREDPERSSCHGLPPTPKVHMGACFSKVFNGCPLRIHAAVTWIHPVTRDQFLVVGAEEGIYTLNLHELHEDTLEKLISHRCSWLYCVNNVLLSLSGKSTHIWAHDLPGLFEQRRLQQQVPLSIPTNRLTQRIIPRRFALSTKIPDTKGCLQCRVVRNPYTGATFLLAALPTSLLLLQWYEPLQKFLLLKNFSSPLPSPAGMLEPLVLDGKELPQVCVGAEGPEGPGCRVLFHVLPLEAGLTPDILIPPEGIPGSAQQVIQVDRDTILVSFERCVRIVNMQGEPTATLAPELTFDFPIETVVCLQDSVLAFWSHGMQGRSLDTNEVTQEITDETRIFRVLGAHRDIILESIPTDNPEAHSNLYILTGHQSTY
Description: as §1, §2

MSSK1 = biological target: T20, MSSK1 (Homo sapiens, UniProt Q9UPE1)
T20 construct: purchased Carna Biosciences
Description: as §1, §2

MST2 = biological target: T21, MST2 (Homo sapiens, UniProt Q13188)
T21 construct: purchased Carna Biosciences
T21 sequence (Q13188 whole entry): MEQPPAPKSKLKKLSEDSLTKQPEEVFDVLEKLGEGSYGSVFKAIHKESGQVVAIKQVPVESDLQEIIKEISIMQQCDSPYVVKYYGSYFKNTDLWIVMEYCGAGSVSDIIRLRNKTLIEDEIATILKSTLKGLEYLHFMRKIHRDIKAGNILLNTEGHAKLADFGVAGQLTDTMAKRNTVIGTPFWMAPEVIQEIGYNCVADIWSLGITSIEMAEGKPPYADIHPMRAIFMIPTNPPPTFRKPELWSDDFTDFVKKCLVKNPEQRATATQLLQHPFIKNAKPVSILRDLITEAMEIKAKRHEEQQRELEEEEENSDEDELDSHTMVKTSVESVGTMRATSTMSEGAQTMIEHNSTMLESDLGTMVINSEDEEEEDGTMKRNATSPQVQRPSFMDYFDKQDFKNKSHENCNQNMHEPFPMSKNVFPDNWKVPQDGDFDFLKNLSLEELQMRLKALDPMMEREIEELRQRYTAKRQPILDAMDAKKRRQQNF
Description: as §1, §2

PAK3 = biological target: T22, PAK3 (Homo sapiens, UniProt O75914)
T22 construct: purchased Carna Biosciences
Description: as §1, §2

PDGFRα(V561D) = biological target: T23, PDGFRα(V561D) (Homo sapiens, UniProt P16234, V561D)
T23 construct: purchased Carna Biosciences
Description: as §1, §2

PGK = biological target: T24, PGK (Homo sapiens, UniProt Q13976)
T24 construct: purchased Carna Biosciences
T24 sequence (Q13976 whole entry): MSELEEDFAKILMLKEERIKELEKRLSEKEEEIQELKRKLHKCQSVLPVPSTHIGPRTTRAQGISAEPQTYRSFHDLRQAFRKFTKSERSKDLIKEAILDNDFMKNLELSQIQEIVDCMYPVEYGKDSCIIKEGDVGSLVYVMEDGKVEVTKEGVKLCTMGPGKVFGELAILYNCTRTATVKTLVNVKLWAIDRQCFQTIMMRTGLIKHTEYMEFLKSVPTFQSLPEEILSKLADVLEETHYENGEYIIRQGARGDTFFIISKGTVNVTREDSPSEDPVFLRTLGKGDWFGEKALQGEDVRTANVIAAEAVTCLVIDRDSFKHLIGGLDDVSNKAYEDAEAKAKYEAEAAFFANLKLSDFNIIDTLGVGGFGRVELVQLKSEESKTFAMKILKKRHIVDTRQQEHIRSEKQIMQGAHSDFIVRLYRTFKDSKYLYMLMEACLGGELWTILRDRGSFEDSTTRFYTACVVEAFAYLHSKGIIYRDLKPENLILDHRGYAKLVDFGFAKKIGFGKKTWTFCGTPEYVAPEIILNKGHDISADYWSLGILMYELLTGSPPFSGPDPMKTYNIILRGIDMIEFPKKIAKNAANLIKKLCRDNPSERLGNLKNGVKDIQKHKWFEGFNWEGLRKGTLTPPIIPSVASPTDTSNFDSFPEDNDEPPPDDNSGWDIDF
Description: as §1, §2

PKCδ = biological target: T25, PKCδ (Homo sapiens, UniProt Q05655)
T25 construct: purchased Carna Biosciences
Description: as §1, §2

PRKX = biological target: T26, PRKX (Homo sapiens, UniProt P51817)
T26 construct: purchased Carna Biosciences
T26 sequence (P51817 whole entry): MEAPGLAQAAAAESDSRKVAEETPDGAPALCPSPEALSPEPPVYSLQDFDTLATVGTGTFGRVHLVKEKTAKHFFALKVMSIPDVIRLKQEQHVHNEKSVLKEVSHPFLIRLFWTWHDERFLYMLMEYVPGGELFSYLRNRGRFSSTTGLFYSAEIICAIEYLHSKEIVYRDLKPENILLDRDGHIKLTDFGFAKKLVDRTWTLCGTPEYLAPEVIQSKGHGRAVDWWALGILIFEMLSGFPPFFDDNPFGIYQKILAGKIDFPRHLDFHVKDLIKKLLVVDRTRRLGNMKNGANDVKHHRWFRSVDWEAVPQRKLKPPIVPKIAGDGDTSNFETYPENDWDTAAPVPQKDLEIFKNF
Description: as §1, §2

RET(G691S) = biological target: T27, RET(G691S) (Homo sapiens, UniProt P07949, G691S)
T27 construct: purchased Carna Biosciences
Description: as §1, §2

ROCK1 = biological target: T28, ROCK1 (Homo sapiens, UniProt Q13464)
T28 construct: purchased Carna Biosciences
T28 sequence (Q13464 whole entry): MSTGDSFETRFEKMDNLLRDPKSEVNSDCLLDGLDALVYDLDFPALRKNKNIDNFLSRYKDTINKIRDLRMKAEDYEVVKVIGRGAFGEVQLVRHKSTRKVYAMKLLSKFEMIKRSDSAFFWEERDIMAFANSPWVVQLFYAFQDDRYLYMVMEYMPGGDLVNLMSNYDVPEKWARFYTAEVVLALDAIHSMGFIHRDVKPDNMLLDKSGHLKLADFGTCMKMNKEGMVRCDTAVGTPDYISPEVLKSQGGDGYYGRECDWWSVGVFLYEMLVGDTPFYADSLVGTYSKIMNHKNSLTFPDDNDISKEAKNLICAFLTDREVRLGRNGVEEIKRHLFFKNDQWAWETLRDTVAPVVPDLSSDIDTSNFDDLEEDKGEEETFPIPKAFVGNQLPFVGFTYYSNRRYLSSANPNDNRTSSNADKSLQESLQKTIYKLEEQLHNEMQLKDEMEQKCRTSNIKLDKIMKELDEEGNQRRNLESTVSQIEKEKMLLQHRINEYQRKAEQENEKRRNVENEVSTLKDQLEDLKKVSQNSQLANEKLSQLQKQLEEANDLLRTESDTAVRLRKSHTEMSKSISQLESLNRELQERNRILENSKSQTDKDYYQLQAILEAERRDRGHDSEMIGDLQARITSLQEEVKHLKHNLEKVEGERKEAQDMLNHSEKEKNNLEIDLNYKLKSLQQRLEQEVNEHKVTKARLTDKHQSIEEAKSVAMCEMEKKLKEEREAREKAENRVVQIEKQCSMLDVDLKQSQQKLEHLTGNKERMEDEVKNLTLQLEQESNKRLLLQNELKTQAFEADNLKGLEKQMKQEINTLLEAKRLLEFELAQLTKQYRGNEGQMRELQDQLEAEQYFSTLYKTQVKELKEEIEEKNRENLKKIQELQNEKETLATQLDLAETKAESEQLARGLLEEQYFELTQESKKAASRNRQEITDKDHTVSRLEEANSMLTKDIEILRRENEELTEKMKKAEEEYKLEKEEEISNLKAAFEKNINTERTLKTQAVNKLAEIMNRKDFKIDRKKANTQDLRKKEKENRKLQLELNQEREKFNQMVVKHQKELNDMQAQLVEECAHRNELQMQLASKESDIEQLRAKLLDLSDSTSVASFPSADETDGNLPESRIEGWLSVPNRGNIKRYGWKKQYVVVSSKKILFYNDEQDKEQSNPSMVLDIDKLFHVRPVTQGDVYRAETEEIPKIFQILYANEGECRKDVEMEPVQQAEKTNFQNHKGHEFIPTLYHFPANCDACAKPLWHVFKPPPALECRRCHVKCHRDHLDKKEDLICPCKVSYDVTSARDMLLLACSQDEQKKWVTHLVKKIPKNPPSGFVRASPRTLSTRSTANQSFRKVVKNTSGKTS
Description: as §1, §2

SGK3 = biological target: T29, SGK3 (Homo sapiens, UniProt Q96BR1)
T29 construct: purchased Carna Biosciences
Description: as §1, §2

SLK = biological target: T30, SLK (Homo sapiens, UniProt Q9H2G2)
T30 construct: purchased Carna Biosciences
Description: as §1, §2

TBK1 = biological target: T31, TBK1 (Homo sapiens, UniProt Q9UHD2)
T31 construct: purchased Carna Biosciences
Description: as §1, §2

TEC = biological target: T32, TEC (Homo sapiens, UniProt P42680)
T32 construct: purchased Carna Biosciences
Description: as §1, §2

TSSK1 = biological target: T33, TSSK1 (Homo sapiens, UniProt Q9BXA7)
T33 construct: purchased Carna Biosciences
Description: as §1, §2

ZAP70 = biological target: T34, ZAP70 (Homo sapiens, UniProt P43403)
T34 construct: purchased Carna Biosciences
Description: as §1, §2

p38δ = biological target: T35, p38δ (Homo sapiens, UniProt O15264)
T35 construct: purchased Carna Biosciences
T35 sequence (O15264 whole entry): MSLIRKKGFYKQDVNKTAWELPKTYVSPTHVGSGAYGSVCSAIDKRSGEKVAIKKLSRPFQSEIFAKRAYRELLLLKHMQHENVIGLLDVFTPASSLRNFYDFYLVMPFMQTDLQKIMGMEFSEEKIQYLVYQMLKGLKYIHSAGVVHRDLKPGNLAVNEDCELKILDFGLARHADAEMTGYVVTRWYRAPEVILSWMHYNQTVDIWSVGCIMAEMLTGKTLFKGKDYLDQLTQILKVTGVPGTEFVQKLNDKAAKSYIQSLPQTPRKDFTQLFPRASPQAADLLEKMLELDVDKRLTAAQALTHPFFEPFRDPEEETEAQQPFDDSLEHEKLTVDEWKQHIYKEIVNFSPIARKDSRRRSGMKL
Description: as §1, §2

[H]/N=C1/NC(=O)C(=Cc2ccc3c(c2)CCO3)S1 [CaNDY, (Z)-5-[(2,3-dihydrobenzofuran-5-yl)methylene]-2-iminothiazolidin-4-one]
remaining activity at 1 µM (ABL): 103% | remaining activity at 1 µM (ABL(T315I)): 97% | remaining activity at 1 µM (AKT1): 104% | remaining activity at 1 µM (AKT2): 105% | remaining activity at 1 µM (ALK(F1174L)): 97.9% | remaining activity at 1 µM (ALK(R1275Q)): 98.5% | remaining activity at 1 µM (AXL): 103% | remaining activity at 1 µM (BRAF(V600E)_Cascade): 105% | %Activity (CHK1): 93.5% | remaining activity at 1 µM (CHK2): 97.2% | %Activity (CK1γ1): 83.4% | %Activity (CSK): 99.7% | remaining activity at 1 µM (CaMK2δ): 89.6% | %Activity (EGFR(L858R)): 105.7% | remaining activity at 1 µM (EPHA7): 97.6% | remaining activity at 1 µM (FLT4): 103% | remaining activity at 1 µM (IKKα): 95.7% | remaining activity at 1 µM (MAP2K4_Cascade): 100% | remaining activity at 1 µM (MAP4K2): 76.7% | remaining activity at 1 µM (MSSK1): 98% | remaining activity at 1 µM (MST2): 103% | remaining activity at 1 µM (PAK3): 109% | remaining activity at 1 µM (PDGFRα(V561D)): 90.3% | remaining activity at 1 µM (PGK): 92.8% | remaining activity at 1 µM (PKCδ): 74.1% | remaining activity at 1 µM (PRKX): 97.6% | remaining activity at 1 µM (RET(G691S)): 102% | remaining activity at 1 µM (ROCK1): 92.5% | remaining activity at 1 µM (SGK3): 93.3% | remaining activity at 1 µM (SLK): 96.9% | remaining activity at 1 µM (TBK1): 100% | remaining activity at 1 µM (TEC): 103% | remaining activity at 1 µM (TSSK1): 94.5% | remaining activity at 1 µM (ZAP70): 95.7% | remaining activity at 1 µM (p38δ): 74.8%
